Results: paper PMC11542186, “Pin1 WW Domain Ligand Library Synthesized with an Easy Solid-Phase Phosphorylating Reagent” (Biochemistry, 2024)
Where a SMILES comes first, the peptide text is derived from it. [ ]: non-standard residue; d: D form. The star is where a group is joined. pS = N[CH](COP(=O)(O)O)C(=O)O; Agmatine = N=C(N)NCCCCN*; Morpholide = C1CN(*)CCO1; Piperidide = C1CCN(*)CC1; Pyrrolidide = C1CCN(*)C1

Biological target: T1, Pin1 WW domain (Pin1–HRP) (Homo sapiens, UniProt Q13526)
T1 construct: purchased R&D Systems
T1 sequence (Q13526 whole entry, the tested form may be a part): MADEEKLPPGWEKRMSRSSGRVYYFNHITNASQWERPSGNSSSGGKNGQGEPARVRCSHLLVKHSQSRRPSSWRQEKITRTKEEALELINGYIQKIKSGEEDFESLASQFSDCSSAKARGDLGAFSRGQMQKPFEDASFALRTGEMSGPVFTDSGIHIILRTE
Experiment: ELEBA primary screening assay of the library
Type: binding
Details: separate plate of groups A and B (L2 control 85.0443); crude library members; DMSO = 100%; mean of N = 2
Procedure: The library was screened by the ELEBA we reported previously.[44] The crude products resulting from diethyl ether precipitation were used for the primary and secondary ELEBA without additional purification. The concentrations of the crude products were estimated based on quantitative yields; actual concentrations were thus lower, depending on yield and purity. The library products were dissolved in DMSO as stock solutions for assays. […] Recombinant human Pin1 conjugated to horseradish peroxidase (Pin1–HRP) was used in the binding assays.[44] Fmoc-VPRpTPVGGGK-NH2 L2 was used as the positive control and DMSO was used as the negative control on each plate. The percent of Pin1–HRP bound to the plate was calculated by normalizing the binding with DMSO to be 100%. In the primary assays (Figure S1), 14 of the best library members were identified: 1{2,d}, 1{18,f}, 1{20,f}, 1{10, l}, 1{13, l}, 1{18, l}, 1{20, l}, 1{10, n}, 1{18, n}, 1{19, n}, 1{2, n}, 1{20, n}, 1{14, o}, 1{3, o}. In the secondary assay, these ligands were measured again at 270 μM, and three hits, 1{2, d}, 1{18, l} and 1{2, n}, were chosen for further analysis (Figure 3).
The Pin1 WW domain ligand, Fmoc–VPRpTPVGGGK–NH2, (100 μL/well, 245 μM stock solution) was covalently attached to a 96-well plate through the ε-amino group of the Lys side chain at pH 11.0, as published.[44] Ligands were dissolved in DMSO at stock concentrations of ca. 50 mM by weight. Competitive binding with plate-linked Fmoc–VPRpTPVGGGK–NH2L1 of pSer–Pro dipeptides was measured at ca. 600 μM for primary screening. In the primary assays, all library members were screened with the crude products. 1{1-21, d} were measured as mixtures of cis- and trans-isomers. Library members synthesized from racemic reagents, such as 1{1-21, c}, 1{1-21, l}, 1{1-21, q}, 1{3, a-q} and 1{8, a-q} were measured as diastereomeric mixtures. The library members were dissolved in DMSO as stock solutions with a concentration of about 37 mM based on estimated yields. The DMSO stock solution of each compound (4 μL) was added into a solution of recombinant Pin1–HRP (R&D Systems) in a PBS buffer with 2% BSA (pH = 7.3). DMSO (4 μL) was used as a negative control. The final volume of the solution was 250 μL, the final concentration of Pin1–HRP was 200 pM, and the estimated final compound concentration was 590 μM. The resulting solution was preincubated for 30 min at ambient temperature, and was added into two wells (100 μL each, for assay in duplicate) of the ligand-linked plate. The solutions were incubated for another 1 h. The solutions were removed by inverting and shaking the plate, and the plate was washed with buffer ([…], and 0.05% Tween 20 in PBS at pH 7.3) three times. A 1:1 solution of hydrogen peroxide and 3,3,5,5′-tetramethylbenzidine (100 μL) was added into each plate well, and incubated in the dark for 20 min. A 2N H2SO4 solution (50 μL) was added to each well to quench the reaction, and the absorbance of was determined at 450 nm. The percentage of Pin1–HRP bound to the plate (% binding) was calculated by eq 1. To calculate the absorbance of a plate well in eq 1, the blank ligand-linked plate was predetermined at the same wavelength, and the absorbance of the blank well was subtracted from the absorbance of the same well containing the final solution. [drawing 2] 1 […]
The Fmoc-Ser(2- […]
cyanoethylphosphate)-OH product was cleaved from the resin with TFA. 1H NMR indicated the presence of the Fmoc group, implying that the substrate was successfully attached to the resin (data not shown). To develop the coupling methods, 2-(2-naphthyl)ethylamine and propionic acid were reacted with the pSer–Pro resin. The resulting propanoyl-pSer–Pro–(2-(2-naphthyl)ethyl)-amide (1H NMR below) was excluded from the library assays.
Figure S1 (following pages). Ligands (group A – O) were screening using ELEBA at ca. 266 µM.
Fmoc-VPRpTPVGGGK-NH2 L2 was used as positive control at 76-87 µM from stock solutions […]
of 4.3-4.8 mM. […]

| Compound | % of Pin1-HRP bound to plate-linked ligand |
| --- | --- |
| CC(=O)NC(COP(=O)(O)O)C(=O)N1CCCC1C(=O)N(C)CC(C)c1ccccc1 (mixture of isomers) [1{3,a}] | 118.382% |
| CC(CN(C)C(=O)C1CCCN1C(=O)C(COP(=O)(O)O)NC(=O)C=Cc1c[nH]cn1)c1ccccc1 (mixture of isomers) [1{3,b}] | 124.358% |
| CC(=O)NC(COP(=O)(O)O)C(=O)N1CCCC1C(=O)NCCCN1CCCCC1C (mixture of isomers) [1{8,a}] | 108.888% |
| CC1CCCCN1CCCNC(=O)C1CCCN1C(=O)C(COP(=O)(O)O)NC(=O)C=Cc1c[nH]cn1 (mixture of isomers) [1{8,b}] | 102.481% |
| CC(=O)NC(COP(=O)(O)O)C(=O)N1CCCC1C(=O)N1CCCC1 (centres unmarked) [1{1,a}] (Ac-[pS]-Pro-Pyrrolidide; configuration not given here) | 111.106% |
| O=C(C=Cc1c[nH]cn1)NC(COP(=O)(O)O)C(=O)N1CCCC1C(=O)N1CCCC1 (centres unmarked) [1{1,b}] | 117.035% |
| CC(=O)N[C@@H](COP(=O)(O)O)C(=O)N1CCC[C@H]1C(=O)Nc1ccc2[nH]ncc2c1 [1{2,a}] | 115.042% |
| O=C(C=Cc1c[nH]cn1)NC(COP(=O)(O)O)C(=O)N1CCCC1C(=O)Nc1ccc2[nH]ncc2c1 (centres unmarked) [1{2,b}] | 113.209% |
| CC(=O)NC(COP(=O)(O)O)C(=O)N1CCCC1C(=O)NCCc1ccc(O)cc1 (centres unmarked) [1{4,a}] | 120.879% |
| O=C(C=Cc1c[nH]cn1)NC(COP(=O)(O)O)C(=O)N1CCCC1C(=O)NCCc1ccc(O)cc1 (centres unmarked) [1{4,b}] | 124.444% |
| CC(=O)N[C@@H](COP(=O)(O)O)C(=O)N1CCC[C@H]1C(=O)N(C)CCc1ccccn1 [1{5,a}] | 108.292% |
| CN(CCc1ccccn1)C(=O)C1CCCN1C(=O)C(COP(=O)(O)O)NC(=O)C=Cc1c[nH]cn1 (centres unmarked) [1{5,b}] | 113.92% |
| COC(=O)C=C(C)NC(=O)[C@@H]1CCCN1C(=O)[C@H](COP(=O)(O)O)NC(C)=O [1{6,a}] | 116.564% |
| COC(=O)C=C(C)NC(=O)C1CCCN1C(=O)C(COP(=O)(O)O)NC(=O)C=Cc1c[nH]cn1 (centres unmarked) [1{6,b}] | 111.464% |
| CCN(CC)CCCCN(C)C(=O)[C@@H]1CCCN1C(=O)[C@H](COP(=O)(O)O)NC(C)=O [1{7,a}] | 99.5048% |
| CCN(CC)CCCCN(C)C(=O)[C@@H]1CCCN1C(=O)[C@H](COP(=O)(O)O)NC(=O)/C=C/c1c[nH]cn1 [1{7,b}] | 108.279% |
| CC(=O)NC(COP(=O)(O)O)C(=O)N1CCCC1C(=O)NCCc1c[nH]cn1 (centres unmarked) [1{9,a}] | 109.367% |
| O=C(C=Cc1c[nH]cn1)NC(COP(=O)(O)O)C(=O)N1CCCC1C(=O)NCCc1c[nH]cn1 (centres unmarked) [1{9,b}] | 117.354% |
| CC(=O)N[C@@H](COP(=O)(O)O)C(=O)N1CCC[C@H]1C(=O)N1CCN(c2ncccn2)CC1 [1{10,a}] | 102.123% |
| O=C(C=Cc1c[nH]cn1)NC(COP(=O)(O)O)C(=O)N1CCCC1C(=O)N1CCN(c2ncccn2)CC1 (centres unmarked) [1{10,b}] | 93.9893% |
| CC(=O)N[C@@H](COP(=O)(O)O)C(=O)N1CCC[C@H]1C(=O)NCCCCCCN [1{11,a}] | 74.9059% |

| Compound | % of Pin1-HRP bound to plate-linked ligand |
| --- | --- |
| NCCCCCCNC(=O)[C@@H]1CCCN1C(=O)[C@H](COP(=O)(O)O)NC(=O)/C=C/c1c[nH]cn1 [1{11,b}] | 79.8617% |
| CC(=O)NC(COP(=O)(O)O)C(=O)N1CCCC1C(=O)NCCCn1ccnc1 (centres unmarked) [1{12,a}] | 109.194% |
| O=C(C=Cc1c[nH]cn1)NC(COP(=O)(O)O)C(=O)N1CCCC1C(=O)NCCCn1ccnc1 (centres unmarked) [1{12,b}] | 94.4757% |
| CC(=O)NC(COP(=O)(O)O)C(=O)N1CCCC1C(=O)N1CCC(N2CCCCC2)CC1 (centres unmarked) [1{13,a}] | 109.315% |
| O=C(/C=C/c1c[nH]cn1)N[C@@H](COP(=O)(O)O)C(=O)N1CCC[C@H]1C(=O)N1CCC(N2CCCCC2)CC1 [1{13,b}] | 96.4764% |
| CC(=O)N[C@@H](COP(=O)(O)O)C(=O)N1CCC[C@H]1C(=O)NCCc1c[nH]c2ccccc12 [1{14,a}] | 120.534% |
| O=C(C=Cc1c[nH]cn1)NC(COP(=O)(O)O)C(=O)N1CCCC1C(=O)NCCc1c[nH]c2ccccc12 (centres unmarked) [1{14,b}] | 109.953% |
| CC(=O)N[C@@H](COP(=O)(O)O)C(=O)N1CCC[C@H]1C(=O)NC1CCN(Cc2ccccc2)CC1 [1{15,a}] | 110.698% |
| O=C(C=Cc1c[nH]cn1)NC(COP(=O)(O)O)C(=O)N1CCCC1C(=O)NC1CCN(Cc2ccccc2)CC1 (centres unmarked) [1{15,b}] | 98.3254% |
| CC(=O)NC(COP(=O)(O)O)C(=O)N1CCCC1C(=O)NCCCCNC(=N)N (centres unmarked) [1{16,a}] (Ac-[pS]-Pro-Agmatine; configuration not given here) | 112.945% |
| N=C(N)NCCCCNC(=O)[C@@H]1CCCN1C(=O)[C@H](COP(=O)(O)O)NC(=O)/C=C/c1c[nH]cn1 [1{16,b}] | 94.5777% |
| CC(=O)NC(COP(=O)(O)O)C(=O)N1CCCC1C(=O)NCCCN1CCOCC1 (centres unmarked) [1{17,a}] | 117.069% |
| O=C(/C=C/c1c[nH]cn1)N[C@@H](COP(=O)(O)O)C(=O)N1CCC[C@H]1C(=O)NCCCN1CCOCC1 [1{17,b}] | 94.8602% |
| CC(=O)N[C@@H](COP(=O)(O)O)C(=O)N1CCC[C@H]1C(=O)NNC(=O)c1ccco1 [1{18,a}] | 102.518% |
| O=C(/C=C/c1c[nH]cn1)N[C@@H](COP(=O)(O)O)C(=O)N1CCC[C@H]1C(=O)NNC(=O)c1ccco1 [1{18,b}] | 87.6813% |
| CC(=O)N[C@@H](COP(=O)(O)O)C(=O)N1CCC[C@H]1C(=O)N1CCCCC1 [1{19,a}] (Ac-[pS]-Pro-Piperidide) | 116.14% |
| O=C(C=Cc1c[nH]cn1)NC(COP(=O)(O)O)C(=O)N1CCCC1C(=O)N1CCCCC1 (centres unmarked) [1{19,b}] | 97.5722% |
| CC(=O)N[C@@H](COP(=O)(O)O)C(=O)N1CCC[C@H]1C(=O)N1CCOCC1 [1{20,a}] (Ac-[pS]-Pro-Morpholide) | 115.484% |
| CC(=O)NC(COP(=O)(O)O)C(=O)N1CCCC1C(=O)NCCc1ccc2ccccc2c1 (centres unmarked) [1{21,a}] | 113.792% |
| O=C(C=Cc1c[nH]cn1)NC(COP(=O)(O)O)C(=O)N1CCCC1C(=O)NCCc1ccc2ccccc2c1 (centres unmarked) [1{21,b}] | 77.3223% |
